Data on 60 compounds can be found in patent US20250074888A1, “PYRIDAZINE DERIVATIVES AS MODULATORS OF NLRP3 INFLAMMASOME AND RELATED METHODS” (Neumora Therapeutics, Inc., priority 2021, published 2025).

The target of one assay is NLRP3 inflammasome (Homo sapiens, UniProt Q96P20). The assay can be described thus: NLRP3 inflammasome activation in THP1 macrophages (LPS priming, nigericin), IL-1β AlphaLISA. The class given is cell-based. To be noted: PMA-differentiated THP1, LPS 20 ng/ml 3 hrs, compound 1 hr, Nigericin 6.7 uM 3 hrs, supernatant. In general terms: In Alpha technology, singlet oxygen from a donor bead excites a nearby acceptor bead.

The subject of another assay is IL-6. In words: IL-6 release from LPS-primed, nigericin-treated THP1 macrophages, Hu IL-6 AlphaLISA. The following applies: Homo sapiens, THP-1; PMA-differentiated THP1, LPS 20 ng/ml 3 hrs, compound 1 hr, Nigericin 6.7 uM 3 hrs, supernatant. The class given is cell-based.

In general, IC50 refers to the concentration that inhibits the measured activity by half.

Structures are written as SMILES.

Chain of NLRP3 inflammasome (Q96P20 whole entry): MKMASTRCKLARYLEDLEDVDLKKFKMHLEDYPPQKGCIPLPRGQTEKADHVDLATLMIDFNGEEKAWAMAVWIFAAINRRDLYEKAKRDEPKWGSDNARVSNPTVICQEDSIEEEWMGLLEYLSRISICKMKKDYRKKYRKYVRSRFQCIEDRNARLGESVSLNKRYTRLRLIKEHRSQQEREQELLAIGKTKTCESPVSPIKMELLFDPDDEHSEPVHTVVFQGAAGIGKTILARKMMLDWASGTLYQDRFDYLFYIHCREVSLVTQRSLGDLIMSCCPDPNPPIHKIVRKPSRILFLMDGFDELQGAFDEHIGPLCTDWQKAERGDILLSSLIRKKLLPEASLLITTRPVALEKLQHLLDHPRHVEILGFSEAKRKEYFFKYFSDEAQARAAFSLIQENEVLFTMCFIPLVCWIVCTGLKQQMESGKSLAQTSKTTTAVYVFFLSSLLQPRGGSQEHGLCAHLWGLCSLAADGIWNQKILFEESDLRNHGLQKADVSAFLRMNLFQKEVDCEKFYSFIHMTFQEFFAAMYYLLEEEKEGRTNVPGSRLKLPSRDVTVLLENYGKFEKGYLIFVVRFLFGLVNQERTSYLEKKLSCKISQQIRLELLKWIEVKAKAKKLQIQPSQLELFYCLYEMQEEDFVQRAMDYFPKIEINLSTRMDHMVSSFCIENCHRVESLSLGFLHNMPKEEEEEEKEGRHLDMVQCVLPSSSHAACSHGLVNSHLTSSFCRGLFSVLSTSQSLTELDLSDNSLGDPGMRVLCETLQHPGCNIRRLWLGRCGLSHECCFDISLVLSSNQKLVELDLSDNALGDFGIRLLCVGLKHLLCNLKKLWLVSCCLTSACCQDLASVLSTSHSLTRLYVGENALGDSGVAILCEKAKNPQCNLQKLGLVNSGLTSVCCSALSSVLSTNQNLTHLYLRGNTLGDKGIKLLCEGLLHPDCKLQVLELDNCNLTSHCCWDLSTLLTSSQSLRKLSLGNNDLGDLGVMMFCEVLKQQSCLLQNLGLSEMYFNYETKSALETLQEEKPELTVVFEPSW

`Cc1cc(N[C@@H]2CCCN(C)C2)nnc1-c1ccc(C(F)(F)F)c(F)c1` [compound 26]: the IC50 was 0.1 to 0.5 µM on NLRP3 inflammasome and more than 10 µM in the assay with IL-6.
Taken in the same sequence, the figures for `Cc1cc(N[C@@H]2CCCN(C)C2)nnc1-c1ccc(F)cc1F` [compound 27] were 0.1 to 0.5 µM and more than 10 µM.
Consider `Cc1cc(N[C@@H]2CCCN(C)C2)nnc1-c1ccc(C2CCC2)cc1` [compound 28], for which the IC50 at NLRP3 inflammasome was 0.1 to 0.5 µM; in the assay on IL-6, 5 to 10 µM.
Turning to `Cc1cc(-c2ccc(C(F)(F)F)cc2F)nnc1N[C@@H]1CCCN(C)C1` [compound 29], the IC50 against NLRP3 inflammasome is 0.1 to 0.5 µM; with IL-6 it was more than 10 µM.
Consider `CCc1cc(-c2ccc(C(F)(F)F)cc2)nnc1N[C@@H]1CCCN(C)C1` [compound 30], for which the IC50 is 0.1 to 0.5 µM at NLRP3 inflammasome and more than 10 µM in the assay on IL-6.
For `Cc1cc(N[C@@H]2CCCN(C)C2)nnc1-c1ccc(C#N)cc1` [compound 31], the values for the IC50 at NLRP3 inflammasome and in the assay with IL-6 were 0.1 to 0.5 µM and more than 10 µM, respectively.
The like results for `COc1ccc(-c2nnc(N[C@@H]3CCCN(C)C3)cc2C)cc1` [compound 32] were, in that order, 0.1 to 0.5 µM and more than 10 µM.
On to `Cc1cc(N[C@@H]2CCCN(C)C2)nnc1-c1cc(C)c(F)c(C)c1` [compound 33], for which the results for the IC50 at NLRP3 inflammasome and with IL-6 were 0.1 to 0.5 µM and more than 10 µM, respectively.
For the compound `Cc1cc(N[C@@H]2CCCN(C)C2)nnc1-c1ccc(F)c(Cl)c1` [compound 34], the IC50 against NLRP3 inflammasome was 0.1 to 0.5 µM; with IL-6, more than 10 µM.
The like results for `COc1cc(C(F)(F)F)ccc1-c1cc(C)c(N[C@@H]2CCCN(C)C2)nn1` [compound 35] were, in that order, 0.5 to 1 µM and more than 10 µM.
The like results for `Cc1cc(-c2ccc(C(F)(F)F)cc2)nnc1N[C@@H]1CCCN(C)C1` [compound 36] were, in that order, 0.5 to 1 µM and more than 10 µM.
The like results for `Cc1cc(N[C@@H]2CCCN(C)C2)nnc1-c1cccc(C(C)C)c1` [compound 37] were, in that order, 0.5 to 1 µM and more than 10 µM.
As for `Cc1cc(-c2ccc(C(F)(F)F)c(F)c2)nnc1N[C@@H]1CCCN(C)C1` [compound 38], the IC50 on NLRP3 inflammasome is 0.5 to 1 µM; with IL-6, more than 10 µM.
For `Cc1cc(N[C@@H]2CCCN(C)C2)nnc1-c1ccc(C(F)(F)F)c(Cl)c1` [compound 39], the IC50 against NLRP3 inflammasome is 0.5 to 1 µM; in the assay on IL-6 it was more than 10 µM.
As to `Cc1cc(N[C@@H]2CCCN(C)C2)nnc1-c1ccc(C(F)(F)F)cc1C#N` [compound 40], the IC50 lay in the range of 0.05 to 0.1 µM on NLRP3 inflammasome and 5 to 10 µM in the assay with IL-6.
The like results for `CN1CCC[C@@H](Nc2nnc(-c3ccc(C(F)(F)F)cc3)cc2Cl)C1` [compound 41] were, in that order, 0.1 to 0.5 µM and more than 10 µM.
On to `Cc1cc(C(F)(F)F)cc(C)c1-c1ccc(N[C@@H]2CCCN(C)C2)nn1` [compound 42], for which the IC50 against NLRP3 inflammasome was 0.5 to 1 µM; in the assay on IL-6, 5 to 10 µM.
Turning to `Cc1cc(N[C@@H]2CCCN(C)C2)nnc1-c1cccc(Cl)c1` [compound 43], the IC50 is more than 1 µM at NLRP3 inflammasome and 5 to 10 µM in the assay with IL-6.
The like results for `Cc1cccc(-c2nnc(N[C@@H]3CCCN(C)C3)cc2C)c1` [compound 44] were, in that order, 0.1 to 0.5 µM and more than 10 µM.
For `Cc1cc(N[C@@H]2CCCN(C)C2)nnc1-c1cccc(F)c1` [compound 45], the IC50 is more than 1 µM on NLRP3 inflammasome and more than 10 µM in the assay with IL-6.
With `Cc1cc(N[C@@H]2CCCN(C)C2)nnc1-c1cccc(C(F)(F)F)c1` [compound 46], the IC50 against NLRP3 inflammasome is more than 1 µM; in the assay on IL-6, more than 10 µM.
On to `Cc1cc(-c2cccc(C(F)(F)F)c2)nnc1N[C@@H]1CCCN(C)C1` [compound 47], for which the IC50 is more than 1 µM against NLRP3 inflammasome and more than 10 µM with IL-6.
The like results for `Cc1cc(N[C@@H]2CCCN(C)C2)nnc1-c1cccc(C#N)c1` [compound 50] were, in that order, more than 1 µM and more than 10 µM.
The like results for `Cc1cc(-c2cccc(C#N)c2)nnc1N[C@@H]1CCCN(C)C1` [compound 51] were, in that order, more than 1 µM and more than 10 µM.
Turning to `COc1cccc(-c2nnc(N[C@@H]3CCCN(C)C3)cc2C)c1` [compound 52], the IC50 was more than 1 µM against NLRP3 inflammasome and more than 10 µM in the assay with IL-6.
With `COc1cccc(-c2cc(C)c(N[C@@H]3CCCN(C)C3)nn2)c1` [compound 53], the IC50 against NLRP3 inflammasome is more than 1 µM; in the assay on IL-6, more than 10 µM.
Take `Cc1cc(N[C@@H]2CCCN(C)C2)nnc1-c1ccccc1` [compound 54]: the IC50 against NLRP3 inflammasome was more than 1 µM; in the assay with IL-6, more than 10 µM.
In the case of `CCc1cccc(-c2nnc(N[C@@H]3CCCN(C)C3)cc2C)c1` [compound 55], the IC50 at NLRP3 inflammasome was more than 1 µM; in the assay with IL-6, more than 10 µM.
Taken in the same sequence, the figures for `Cc1cc(-c2cccc(F)c2)nnc1N[C@@H]1CCCN(C)C1` [compound 56] were more than 1 µM and more than 10 µM.
As for `COc1ccc(-c2cc(C)c(N[C@@H]3CCCN(C)C3)nn2)cc1` [compound 58], the values for the IC50 at NLRP3 inflammasome and with IL-6 were more than 1 µM and more than 10 µM, respectively.
As to `CN1CCC[C@@H](Nc2cc(C#N)c(-c3ccc(C(F)(F)F)cc3)nn2)C1` [compound 59], the values for the IC50 against NLRP3 inflammasome and in the assay with IL-6 were 0.05 to 0.1 µM and more than 10 µM, respectively.
The like results for `Cc1cc(N[C@@H]2CCCN(CC(F)F)C2)nnc1-c1ccc(C(F)(F)F)cc1` [compound 60] were, in that order, 0.1 to 0.5 µM and 5 to 10 µM.
Taken in the same sequence, the figures for `CN1CCC[C@@H](Nc2cc(C(F)(F)F)c(-c3ccc(C(F)(F)F)cc3)nn2)C1` [compound 61] were 0.01 to 0.05 µM and more than 10 µM.
Turning to `Cc1cc(-c2nnc(N[C@@H]3CCCN(C)C3)cc2C)ccc1F` [compound 62], the IC50 was 0.01 to 0.05 µM on NLRP3 inflammasome and more than 10 µM in the assay with IL-6.
For `Cc1cc(N[C@@H]2CCCN(C)C2)nnc1-c1ccc(C(F)(F)F)c(C#N)c1` [compound 63], the IC50 against NLRP3 inflammasome is 0.1 to 0.5 µM; in the assay on IL-6, more than 10 µM.
Take `Cc1cc(N[C@@H]2CCCN(C)C2)nnc1-c1ccc(F)c(F)c1` [compound 64]: the results for the IC50 on NLRP3 inflammasome and in the assay with IL-6 were 0.1 to 0.5 µM and more than 10 µM, respectively.
The like results for `Cc1cc(N[C@@H]2CCCN(CCF)C2)nnc1-c1ccc(F)cc1` [compound 65] were, in that order, 0.5 to 1 µM and more than 10 µM.
The like results for `Cc1cc(N[C@@H]2CCCN(CC3CC3)C2)nnc1-c1ccc(C(F)(F)F)cc1` [compound 66] were, in that order, not above 0.01 µM and more than 10 µM.
With `CN1CCC[C@@H](Nc2ccc(-c3ccc(C(F)(F)F)cc3)nn2)C1` [compound 67], the results for the IC50 against NLRP3 inflammasome and with IL-6 were 0.1 to 0.5 µM and more than 10 µM, respectively.
In the case of `Cc1cc(N[C@@H]2CCCN(C3CC3)C2)nnc1-c1ccc(C(F)(F)F)cc1` [compound 68], the IC50 against NLRP3 inflammasome is not above 0.01 µM; with IL-6, more than 10 µM.
Take `Cc1cc(N[C@H]2CN(C)CC(F)(F)C2)nnc1-c1ccc(C(F)(F)F)cc1` [compound 69]: the results for the IC50 against NLRP3 inflammasome and with IL-6 were 0.05 to 0.1 µM and more than 10 µM, respectively.
Regarding `Cc1cc(N[C@@H]2CCCN(CC3CC3)C2)nnc1-c1ccc(F)cc1` [compound 70], the figures for the IC50 on NLRP3 inflammasome and with IL-6 were not above 0.01 µM and more than 10 µM, respectively.
As to `Cc1cc(-c2ccc(N[C@@H]3CCCN(C)C3)nn2)c(C)cc1F` [compound 71], the IC50 at NLRP3 inflammasome was 0.01 to 0.05 µM; with IL-6, more than 10 µM.
The like results for `Cc1cc(-c2ccc(C(F)(F)F)cc2C#N)nnc1N[C@@H]1CCCN(C)C1` [compound 72] were, in that order, 0.1 to 0.5 µM and more than 10 µM.
On to `Cc1cc(-c2ccc(F)c(Cl)c2)nnc1N[C@@H]1CCCN(C)C1` [compound 73], for which the IC50 against NLRP3 inflammasome is 0.1 to 0.5 µM; in the assay with IL-6, more than 10 µM.
As to `Cc1cc(N[C@H]2CN(C)CC[C@H]2F)nnc1-c1ccc(C(F)(F)F)cc1` [compound 74, N-((3S,4R)-4-fluoro-1-methylpiperidin-3-yl)-5-methyl-6-(4-(trifluoromethyl)-phenyl)pyridazin-3-amine], the values for the IC50 at NLRP3 inflammasome and with IL-6 were more than 1 µM and more than 10 µM, respectively.
Consider `COc1cc(C(F)(F)F)cc(C)c1-c1ccc(N[C@@H]2CCCN(C)C2)nn1` [compound 75], for which the values for the IC50 at NLRP3 inflammasome and in the assay with IL-6 were more than 1 µM and 5 to 10 µM, respectively.
As to `Cc1cc(N[C@@H]2CCCN(C)C2)nnc1-c1ccc(O)c(C)c1C(F)(F)F` [compound 76], the figures for the IC50 at NLRP3 inflammasome and in the assay on IL-6 were more than 1 µM and 5 to 10 µM, respectively.
The like results for `Cc1cc(-c2cccc(Cl)c2)nnc1N[C@@H]1CCCN(C)C1` [compound 77] were, in that order, more than 1 µM and 5 to 10 µM.
Taken in the same sequence, the figures for `CCc1cccc(-c2cc(C)c(N[C@@H]3CCCN(C)C3)nn2)c1` [compound 78] were more than 1 µM and more than 10 µM.
For the compound `Cc1cc(-c2cccc(C(C)C)c2)nnc1N[C@@H]1CCCN(C)C1` [compound 79], the IC50 against NLRP3 inflammasome was more than 1 µM; in the assay with IL-6 it was more than 10 µM.
Taken in the same sequence, the figures for `Cc1cc(-c2ccc(C#N)cc2)nnc1N[C@@H]1CCCN(C)C1` [compound 80] were more than 1 µM and more than 10 µM.
For `Cc1cc(-c2ccc(OC(F)(F)F)cc2)nnc1N[C@@H]1CCCN(C)C1` [compound 81], the IC50 against NLRP3 inflammasome is more than 1 µM; with IL-6 it was more than 10 µM.
Taken in the same sequence, the figures for `Cc1ccc(-c2cc(C)c(N[C@@H]3CCCN(C)C3)nn2)cc1` [compound 82] were more than 1 µM and more than 10 µM.
For the compound `CN1CCC[C@@H](Nc2ccc(-c3ccccc3)nn2)C1` [compound 84], the IC50 on NLRP3 inflammasome is more than 1 µM; in the assay on IL-6, more than 10 µM.
Taken in the same sequence, the figures for `Cc1ccccc1-c1ccc(N[C@@H]2CCCN(C)C2)nn1` [compound 85] were more than 1 µM and more than 10 µM.
For the compound `Cc1ccccc1-c1nnc(N[C@@H]2CCCN(C)C2)cc1C` [compound 87], the half-maximal inhibitory concentration (IC50) against NLRP3 inflammasome was more than 1 µM; in the assay on IL-6, more than 10 µM.
`Cc1cc(-c2ccc(C(F)(F)F)cc2)nnc1N[C@H]1CN(C)CC[C@H]1F` [compound 88]: the IC50 is more than 1 µM at NLRP3 inflammasome and more than 10 µM with IL-6.
Taken in the same sequence, the figures for `Cc1cc(N[C@@H]2CCCN(C)C2)nnc1-c1ccccc1C#N` [compound 89] were more than 1 µM and more than 10 µM.
The like results for `Cc1cc(-c2ccccc2C#N)nnc1N[C@@H]1CCCN(C)C1` [compound 90] were, in that order, more than 1 µM and more than 10 µM.
